Earlier results in patent publication US20190161439A1, “MARINE SESSILE ORGANISM-REPELLING COMPOSITION” (BASSERU CHEMICAL CO., LTD., priority 2015, published 2019).

Test system: Barnacle
Settings: reported values

Structure (SMILES)	concentration corresponding to the 50% adhesion inhibition rate to Barnacle (EC50) [µg/mL]
CC(=O)O[C@H]1CC[C@](C)(C#N)CC1 [AF-034]	0.0084
[C-]#[N+]C(C)(C)CCCCCCCCC=C [AF-035]	0.03
